Results on 2 compounds are retold here after paper PMC5955586, “Transport of enniatin B and enniatin B1 across the blood-brain barrier and hints for neurotoxic effects in cerebral cells” (PLoS ONE, 2018).

Values joined by “and” are separate entries in the source; they are usually repeats but may differ in a detail not shown here. Equal values may be shown once. Read-outs that look alike come from different tables or passages of the source.

Details of data set [1]: method as in PMID 23598119. The note with it: oral intake 0.05 mg/kg b.w.; cited from earlier work.
The subject of a further data set is PBCEC. The data set is described as follows: Barrier integrity of PBCEC (TEER and capacitance CCl). The class given is cell-based, porcine. The note with it: for barrier impairing effect: 200 nM; for effect on TEER value / effect on monolayer confluency (capacitance CCl): 1 μM, 48 h. The protocol: (§1) Before starting each experiment, the TEER values and the electrical capacitance of all cell layers were measured via cellular impedance spectroscopy (cellZscope®, nanoAnalytics, Münster, Germany). […] TEER values relate to the constitution of the tight junctions limiting paracellular transfer of compounds. In addition to the TEER, electrical capacitances (CCl) were monitored for 48 h. Cellular phospholipid bilayers act like an electrical capacitor and also contribute to the cellular impedance. Changes of the CCl value give information about the integrity of the cell monolayer. In this experiment, a parallel set up was applied. For each treatment, one triplicate of filters was monitored via cellular impedance spectroscopy over the course of 48 h using a cellZscope® device–here, the basolateral compartment was prepared with 1650 μL serum free medium and the volume in the apical compartment was filled to 760 μL (ratio 1:2.17). Another triplicate for the same incubation conditions was kept in Transwell® filter cell culture multiple well plates (12 well format) over the course of 48 h. In the multiple well plates the ratio between the apical and the basolateral compartment was 1:3, therefore the starting volume in the apical compartment is 500 μL and 1500 μL in the basolateral compartment. Here, samples for quantitation of transfer of enniatins across the barrier were drawn after 1, 2.5, 6.5, 18, 24, 28, 42 and 48 hours in this given ratio i.e. 30 μL apical and 90 μL basolateral. After 48 h, the final TEER values of the filters from the multiple well plate were measured to ensure the stability of the cell layer throughout the experiment. To double check the integrity of the barrier, lucifer yellow (LY, 50 μM), as a paracellular transfer marker, was applied. The amount of LY found in the basolateral compartment after 1 h was measured at λex = 430 nm and λ em = 540 nm.

In the next data set the test system is caspase-3. The data set is described as follows: Caspase-3 activity in CCF-STTG1 lysates. The class given is cell-based, human. The note with it: 48 h. The protocol:
For studying caspase-3 activity CCF-STTG1 cells were seeded in 12 well tissue culture plates in a cell density of 2.25 × 10^5 cells/well. The cells were grown for 24 h until a confluence of at least 70% was reached, then the medium was changed to serum free medium (RPMI 1640 medium supplemented with 100 U/mL penicillin, 100 μg/mL streptomycin and 2 mM L-glutamine). Concentrations from 0.1 μM to 2.5 μM were chosen to prevent strong cytotoxic effects, which might interfere with the endpoint of interest. 24 h after adaption to serum free conditions, cells were incubated with ENN B and ENN B1. Caspase-3 activity was determined in lysates. […] 33 μL reaction solution were added to 30 μL of the supernatant and incubated for 1 and 2 h at 37°C, 5% CO2 and saturated humidified atmosphere and then measured at λex = 405 nm and λem = 520 nm (Infinite M200 PRO microplate reader). […] The results were calculated as μmol AFC/μg protein and normalized to the solvent treated control (ACN 0.25%).
For quantitation of the total protein content a bicinchoninic acid (BCA) assay kit (Sigma-Aldrich GmbH, Seelze, Germany) was applied. […] After that the absorbance was measured at 560 nm with a Infinite M200 PRO microplate reader (Tecan, Crailsheim, Germany).

In a further data set the test system is Caco-2 cells. The arrangement: method as in PMID 21640785. Conditions: cited from earlier work.
A short description of data set [2]: Transfer across PBCEC monolayer on Transwell filters (BBB model). Format: in vitro ADME, porcine. The note with it: pig; apical to basolateral, 1 μM apical application (passive transport); read-out: Permeability coefficient. The protocol:
(§2) In accordance with the thawing and seeding procedure for PBCEC, described for the viability test, 500 μL PBCEC suspension (2.5 × 10^5 cells/well) in culture medium were seeded on rat tail collagen coated 12-well Transwell® microporous polycarbonate filter inserts (Corning, Wiesbaden, Germany; growth area 1.12 cm^2, pore size 0.4 μm) in the upper (apical) compartment of the filter system. The lower (basolateral) compartment was filled with 1500 μL complete medium. This two-compartment system was used as model system for the BBB with the apical compartment reflecting the “blood”-side and the basolateral compartment serving as the “brain”-side. After 48 h, the complete medium was replaced by serum free medium. Additionally, 550 nM hydrocortisone (Sigma-Aldrich, Steinheim, Germany) was supplemented to urge differentiation of cells. After another 48 h, experiments studying barrier integrity and permeability were performed.
as §1
(§3) After the completion of the experiment, the polycarbonate filter membranes were extracted. The filters were cut out and extracted with ACN/H2O (8+2, v/v) via ultrasonication for 1 h. The extract was evaporated (vacuum concentrator BA-VC-200 H, Bachofer GmbH + Co KG, Reutlingen, Germany) and reconstituted in 200 μL of ACN/H2O (8+2, v/v). The obtained samples and filter extracts were analyzed and quantitated with high performance liquid chromatography-tandem mass spectrometry (HPLC-MS/MS).
(§4) The quantitation of ENN B and ENN B1 by HPLC-MS/MS was carried out using an 1100 series (Agilent Technologies, Santa Clara, USA) high performance liquid chromatography (HPLC) system and API 3200 (AB SCIEX Germany GmbH, Darmstadt, Germany) mass spectrometer. Both devices were operated with Analyst Version 1.6.2 software (AB SCIEX Germany GmbH, Darmstadt, Germany). A Synergi 4 μm Fusion-RP 80 Å 50 × 2.0 mm (Phenomenex) equipped with a Synergy 4 μm Fusion-RP 4 × 2.0 mm (Phenomenex) precolumn was used and maintained at 40°C. A binary gradient consisting of ACN (A) and water (B) (both containing 0.1% formic acid) was applied. […]

The next data set concerns PBCEC monolayer. The description is as above. The class given is in vitro ADME, porcine. The note with it: for active transport: 200 nM equimolar on both sides; for amount of apically applied compound found in basolateral compartment: after 6.5 h; for amount in filter membrane with attached PBCEC relative to applied amount: extraction after 48 h. The method, then: as §2, §1, §3, §4

For another data set, the system named is HepG2 cells. Also on record: method as in PMID 16730043. Conditions: HepG2, 24 h, Alamar Blue; cited from earlier work. (Alamar Blue is a resazurin reagent that responds to reducing activity.)

For the compound `CC[C@H](C)[C@H]1C(=O)O[C@H](C(C)C)C(=O)N(C)[C@@H](C(C)C)C(=O)O[C@H](C(C)C)C(=O)N(C)[C@@H](C(C)C)C(=O)O[C@H](C(C)C)C(=O)N1C` [ENN B1, enniatin B1], the “concentration in pig plasma” value in data set [1] is 0.035 μg/mL and 0.054 μM. Further, in the data set on PBCEC, the barrier impairing effect result is given as “did not have any barrier impairing effect”, the “effect on TEER value” is recorded as “does not lead to a breakdown of the TEER value” and the “effect on monolayer confluency (capacitance CCl)” value was “does not impair PBCEC confluency”. In addition, the “maximum increase of caspase-3 activity (relative to solvent control)” value in the data set with caspase-3 (CCF-STTG1, 1 μM) was 160%. In the data set with Caco-2 cells (read-out: IC50), the half-maximal inhibitory concentration (IC50) – broadly, the concentration that inhibits the measured activity by half – was 11.5 µM. Besides, the Papp A→B at 1 μM in data set [2] turned out to be 14.6 ×10⁻⁶ cm/s. Further, in the data set with PBCEC monolayer, the active transport entry was “minor enrichment in the apical compartment” and the “amount in filter membrane with attached PBCEC relative to applied amount” value amounted to 2.7%. Also, in the data set on PBCEC monolayer (1 μM (0.5 nmol) apical, 6.5 h to 48 h), the “amount transferred to basolateral compartment” value was “up to 55%”. In addition, the “amount of apically applied compound found in basolateral compartment” value in the data set on PBCEC monolayer (1 μM (0.5 nmol) apical) worked out at 44%. Moreover, in the data set on HepG2 cells, the IC50 was 36 µM.
Consider `CC(C)[C@H]1C(=O)O[C@H](C(C)C)C(=O)N(C)[C@@H](C(C)C)C(=O)O[C@H](C(C)C)C(=O)N(C)[C@@H](C(C)C)C(=O)O[C@H](C(C)C)C(=O)N1C` [ENN B, enniatin B], for which the “concentration in pig plasma” value in data set [1] was 0.073 μg/mL and 0.114 μM. In addition, in the data set on PBCEC, the barrier impairing effect result was “did not have any barrier impairing effect”, the “effect on TEER value” is “does not lead to a breakdown of the TEER value” and the “effect on monolayer confluency (capacitance CCl)” value is reported as “does not impair PBCEC confluency”. In addition, in the data set with caspase-3 (CCF-STTG1, 2.5 μM), the “increase of caspase-3 activity compared to solvent control” value was determined as 2.7 fold. In addition, the IC50 result with Caco-2 cells is reported as “no IC50 could be calculated”. Also, the Papp A→B at 1 μM in data set [2] came to 14.9 ×10⁻⁶ cm/s. In the data set with PBCEC monolayer, the active transport result is given as “minor enrichment in the apical compartment” and the “amount in filter membrane with attached PBCEC relative to applied amount” value was “below 1%”. In the data set on PBCEC monolayer (1 μM (0.5 nmol) apical), the “plateau of amount in basolateral compartment” value worked out at 70 ± 4% and the “amount of apically applied compound found in basolateral compartment” value is recorded as 53%. Moreover, the IC50 in the data set with HepG2 cells is 436 µM.
